{"source": "patent US20160345553A1", "about": "“TRANSGENIC MOUSE MODELS FOR MC4R” (UNIVERSITE DE MONTREAL, priority 2012, published 2016)", "key": {"[1]": {"system": "hMC4R (R165W) knock-in mice", "test": "In vivo test of DCPMP on knock-in mouse model carrying human mutant form of MC4R (food intake, weight loss)", "conditions": "30 mg per kg i.p. one dose daily for 9 days", "protocol": "(§1) Mice were intraperitoneally injected one dose daily with vehicle or DCPMP at 30 mg per kg one hour before light off, for 9 days. Data are the average daily food intake (A, B. C), or the mean of the total body weight loss [total body weight before treatment—total body weight after 9 days treatment] (D), for each experimental group, Data are expressed as Mean±SEM. Numbers of animal per genotype are indicated in brackets.\n(§2) Mice were intraperitoneally injected one dose daily with vehicle or N-((2R)-3(2,4-dichlorophenyl)-1-(4-(2-((1-methoxypropan-2-ylamino)methyl)phenyl)piperazin-1-yl)-1-oxopropan-2-yl)propionamide (DCPMP) at 30 mg per kg one hour before light off, for 9 days.\n(§3) Animals were individually housed for 4 days prior to starting experiments. […] All animals were weighed prior to compound injection, and doses were normalized to individual animal body weight. Mice were intraperitoneally injected one dose daily with vehicle (1% Tween 80) or DCPMP at 30 mg per kg one hour before lights off (at 5:00 PM), for 9 days. Weight was monitored every 3 days during treatment and after stopping treatment. Food intake was measured during the recovery time for 7 days. Data are the average daily food intake or the mean of total body weight loss [total body weight before treatment—total body weight after 9 days treatment]."}, "[2]": {"system": "non-transgenic littermate mice", "test": "In vivo test of DCPMP in non-transgenic littermate mice (food intake)", "set-up": "species or system mouse", "conditions": "at the beginning of DCPMP treatment, 30 mg per kg i.p. daily", "protocol": "as §1, §2, §3"}}}
{"smiles": "CCC(=O)N[C@H](Cc1ccc(Cl)cc1Cl)C(=O)N1CCN(c2ccccc2CNC(C)COC)CC1", "note": "(stereo partly drawn) [DCPMP, N-((2R)-3(2,4-dichlorophenyl)-1-(4-(2-((1-methoxypropan-2-ylamino)methyl)phenyl)piperazin-1-yl)-1-oxopropan-2-yl)propionamide]", "values": [{"measurement": "food intake", "setting": "[1]; hMC4R (R165W) male mice", "value": "reducing food intake"}, {"measurement": "weight loss, % of total weight", "setting": "[1]; initially overweight heterozygous hMC4R (R165W) mice", "value": "up to 13%"}, {"measurement": "weight loss, % of total weight", "setting": "[1]; initially overweight homozygous hMC4R (R165W) mice", "value": "≤ 15", "unit": "%"}, {"measurement": "food consumption", "setting": "[2]", "value": "slightly reduced"}]}
